Measured values taken from patent publication US11332459B2 (TEIJIN PHARMA LIMITED, priority 2017, dated 2022).
Counter-ions that a name gives are not always drawn.

What follows are compounds tested against T1, human TRPC6 (Homo sapiens, UniProt Q9Y210) (assay: TRPC6 calcium flux assay (FLIPR, OAG-stimulated calcium influx)). Settings: HEK293 cells stably transfected with human TRPC6, read-out: hTRPC6 Potency.
T1 construct: expressed in transfected cells
T1 sequence (Q9Y210 1-931): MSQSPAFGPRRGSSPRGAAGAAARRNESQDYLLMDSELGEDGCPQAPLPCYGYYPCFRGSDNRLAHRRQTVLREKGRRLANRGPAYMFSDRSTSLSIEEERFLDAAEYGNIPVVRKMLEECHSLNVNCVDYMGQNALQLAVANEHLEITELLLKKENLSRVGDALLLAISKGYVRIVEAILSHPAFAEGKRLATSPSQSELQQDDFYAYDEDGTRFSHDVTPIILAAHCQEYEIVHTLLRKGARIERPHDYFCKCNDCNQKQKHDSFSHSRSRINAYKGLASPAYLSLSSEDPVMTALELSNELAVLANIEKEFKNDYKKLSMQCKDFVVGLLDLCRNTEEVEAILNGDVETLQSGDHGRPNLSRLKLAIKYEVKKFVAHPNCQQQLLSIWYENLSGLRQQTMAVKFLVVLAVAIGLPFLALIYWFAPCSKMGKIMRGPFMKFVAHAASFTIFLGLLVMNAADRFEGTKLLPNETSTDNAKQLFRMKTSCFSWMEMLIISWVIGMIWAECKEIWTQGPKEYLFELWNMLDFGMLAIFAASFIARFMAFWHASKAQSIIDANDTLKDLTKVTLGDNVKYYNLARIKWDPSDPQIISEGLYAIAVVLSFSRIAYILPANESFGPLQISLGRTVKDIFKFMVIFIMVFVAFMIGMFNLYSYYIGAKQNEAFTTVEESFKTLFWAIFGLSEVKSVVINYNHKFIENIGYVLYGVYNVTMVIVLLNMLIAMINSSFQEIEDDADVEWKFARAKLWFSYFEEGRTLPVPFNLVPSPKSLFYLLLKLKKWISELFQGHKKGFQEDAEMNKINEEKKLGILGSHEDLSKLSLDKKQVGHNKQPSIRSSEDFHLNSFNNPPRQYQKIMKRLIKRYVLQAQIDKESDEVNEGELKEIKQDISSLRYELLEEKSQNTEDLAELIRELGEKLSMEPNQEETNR
Format: cell-based
Experimental: Biological Example 1 TRPC6 Calcium Flux Assay
Potency of TRPC6 (Transient receptor potential channel family C6) inhibitors were measured by their inhibition of Calcium influx trigged by […] (1-Oleoyl-2-acetyl-sn-glycerol, Millipore Sigma, O6754) stimulation on HEK293 cells stablely transfected with human TRPC6 using a FLIPR tetra system. Cells were grown in a humidified environment at 37° C. under 5% CO2 using the growth medium with the following selective reagents (Dulbecco's Modified Eagle's Medium (DMEM) high glucose, 10% Fetal Bovine Serum, 1×PSGlu (penicillin-streptomycin glutamine), 1×NEAA (Non-essential amino acid), 1× Na Pyruvate and 200 ug/ml Hygromycin). For general passage, cells were grown to 70-90% confluency; the media was removed, and the cells were gently washed 2 times with calcium and magnesium free PBS (phosphate-buffered saline). Trypsin (3 mL) was applied for 5 minutes at 37° C. The cells were dislodged by rapping flask against base of a hand and 7 mL of growth medium was added to deactivate trypsin and re-suspend cells. The usual splitting schedule was 1:5 every 2-3 days.
Cells were plated the day before the assay, plating cell density is 1.0-1.5×10^4/25 μl/well in poly-D-lysine (PDL) coated 384-well plates using either multichannel pipettes or multidrop. These cells were first incubated with fluorescence dye at room temperature for 90-120 minutes after they were grown on PDL-coated 384-well black plates overnight (Dye loading buffer 10 ml example: 9 mL assay buffer, 1 mL, 10×PBX signal enhancer, 10 μL Calcium indicator). The cells were incubated with a dose of compounds for 25 minutes before being stimulated with TRPC6 agonist OAG. The OAG solution was prepared by adding OAG into assay buffer (Ca ringer solution base: 10 mM HEPES (4-(2-hydroxyethyl)-1-piperazine-ethanesulfonic acid), 4 mM MgCl2, 120 mM NaCl, 5 mM KCl, pH=7.2 @25° C.)+0.1% BSA+2 mM CaCl2) to the concentration of 0.2 mM/2% DMSO, which achieves a final on cell concentration of 50 uM/0.5% DMSO. 12.5 uL OAG mixture was added and the activation of the TRPC6 channel was measured by the change of intracellular Calcium levels on FLIPR terra system.
Data was acquired by measuring the fluorescent peak signal subtracted from the background during the 180 second imaging frame. Each data point is further normalized to 100% of OAG triggered signal vs. buffer. Table 16 provides the IC50 for each compound, which data is obtained by plotting peak signal over the compound dose.

Row | Compound | IC50
1 | N#Cc1ccc(Cn2c(N3CC[C@@H](F)[C@H](N)C3)nc3ccccc32)cc1 [Example 173, 4-((2-((3R,4R)-3-amino-4-fluoropiperidin-1-yl)-1H-benzo[d]imidazol-1-yl)methyl)benzonitrile] | 1.38 nM
2 | CC1CCCN(C(=O)C2CCN(C(=O)Cn3c(N4CC[C@@H](F)[C@H](N)C4)nc4cc(F)c(F)cc43)CC2)C1 (stereo partly drawn) [Example 539, 2-(2-((3R,4R)-3-amino-4-fluoropiperidin-1-yl)-5,6-difluoro-1H-benzo[d]imidazol-1-yl)-1-(4-(3-methylpiperidine-1-carbonyl)piperidin-1-yl)ethan-1-one] | > 3750 nM
3 | N#Cc1ccc(Cn2c(N3CC[C@@H](F)[C@H](N)C3)nc3ncc(C(F)(F)F)cc32)nc1 [Example 499, 6-((2-((3R,4R)-3-amino-4-fluoropiperidin-1-yl)-6-(trifluoromethyl)-1H-imidazo[4,5-b]pyridin-1-yl)methyl)nicotinonitrile] | 2.58 nM
4 | N#Cc1ccc(Cn2c(N3CC[C@@H](F)[C@H](N)C3)nc3ccc(OC(F)(F)F)cc32)nc1 [Example 19, 6-((2-((3R,4R)-3-amino-4-fluoropiperidin-1-yl)-6-(trifluoromethoxy)-1H-benzo[d]imidazol-1-yl)methyl)nicotinonitrile] | 0.956 nM
5 | N[C@@H]1CN(c2nc3cc(F)c(F)cc3n2CC(=O)N2CCCc3cccnc32)CC[C@H]1F [Example 630, 2-(2-((3R,4R)-3-amino-4-fluoropiperidin-1-yl)-5,6-difluoro-1H-benzo[d]imidazol-1-yl)-1-(3,4-dihydro-1,8-naphthyridin-1(2H)-yl)ethanone] | 174 nM
6 | C[C@H](CC#N)NC(=O)Cn1c(N2CC[C@@H](F)[C@H](N)C2)nc2ccc(F)cc21 [Example 670, 2-(2-((3R,4R)-3-amino-4-fluoropiperidin-1-yl)-6-fluoro-1H-benzo[d]imidazol-1-yl)-N-((R)-1-cyanopropan-2-yl)acetamide] | 1120 nM
7 | N#Cc1ccc(Cn2c(N3CCC(F)(F)[C@H](NCCO)C3)nc3ccc(F)cc32)nc1 [Example 433, (R)-6-((2-(4,4-difluoro-3-((2-hydroxyethyl)amino)piperidin-1-yl)-6-fluoro-1H-benzo[d]imidazol-1-yl)methyl)nicotinonitrile] | > 3750 nM
8 | N#Cc1ccc(Cn2c(N3CC[C@@H](F)[C@H](N)C3)nc3ccc(Cl)cc32)cc1 [Example 420, 4-((2-((3R,4R)-3-amino-4-fluoropiperidin-1-yl)-6-chloro-1H-benzo[d]imidazol-1-yl)methyl)benzonitrile hydrochloride] | 0.6 nM
9 | N#Cc1cc(F)cc2c1nc(N1CC[C@@H](F)[C@H](N)C1)n2Cc1ncc(F)cn1 [Example 37, 2-((3R,4R)-3-amino-4-fluoropiperidin-1-yl)-6-fluoro-1-((5-fluoropyrimidin-2-yl)methyl)-1H-benzo[d]imidazole-4-carbonitrile] | 6.92 nM
10 | CN(CC(F)(F)F)C(=O)Cn1c(N2CC[C@@H](F)[C@H](N)C2)nc2ccc(F)cc21 [Example 457, 2-(2-((3R,4R)-3-amino-4-fluoropiperidin-1-yl)-6-fluoro-1H-benzo[d]imidazol-1-yl)-N-methyl-N-(2,2,2-trifluoroethyl)acetamide] | 13.3 nM
11 | N#Cc1ccc(Cn2c(N3CC[C@@H](O)[C@H](N)C3)nc3ccccc32)nc1 [Example 95, 6-((2-((3R,4R)-3-amino-4-hydroxypiperidin-1-yl)-1H-benzo[d]imidazol-1-yl)methyl)nicotinonitrile] | > 3750 nM
12 | N#Cc1ccc(Cn2c(N3CC[C@@H](F)[C@H](N)C3)nc3cc(C(F)(F)F)cnc32)nc1 [Example 519, 6-((2-((3R,4R)-3-amino-4-fluoropiperidin-1-yl)-6-(trifluoromethyl)-3H-imidazo[4,5-b]pyridin-3-yl)methyl)nicotinonitrile] | 476 nM
13 | N#Cc1ccc(Cn2c(N3CC[C@](F)(CN)C3)nc3ccccc32)cc1 [Example 175, (S)-4-((2-(3-(aminomethyl)-3-fluoropyrrolidin-1-yl)-1H-benzo[d]imidazol-1-yl)methyl)benzonitrile 2,2,2-trifluoroacetate] | 1700 nM
14 | N[C@@H]1CN(c2nc3ccc(F)cc3n2Cc2ncc(Cl)cn2)CC[C@@H]1F [Example 39, (3R,4S)-1-(1-((5-chloropyrimidin-2-yl)methyl)-6-fluoro-1H-benzo[d]imidazol-2-yl)-4-fluoropiperidin-3-amine] | 0.867 nM
15 | N[C@@H]1CN(c2nc3cc(F)c(F)cc3n2Cc2ccc(C(F)F)cc2)CC[C@H]1F [Example 363, (3R,4R)-1-(1-(4-(difluoromethyl)benzyl)-5,6-difluoro-1H-benzimidazol-2-yl)-4-fluoro-3-piperidinamine] | 31.3 nM
16 | CCOc1ccc2nc(N3CC[C@@H](F)C(N)C3)n(Cc3ccc(C#N)cc3)c2c1 (stereo in doubt) [Example 414, 4-((2-((3R,4R)-3-amino-4-fluoro-1-piperidinyl)-6-ethoxy-1H-benzimidazol-1-yl)methyl)benzonitrile] | 1.5 nM
17 | N#Cc1ccc(Cn2c(N3CC[C@@H](F)[C@@H](N)C3)nc3ccccc32)cc1 [Example 171, 4-((2-((3S,4R)-3-amino-4-fluoropiperidin-1-yl)-1H-benzo[d]imidazol-1-yl)methyl)benzonitrile] | 544 nM
18 | N#Cc1ccc(Cn2c(N3CC[C@H](N)C3)nc3ccccc32)cc1 [Example 166, (S)-4-((2-(3-aminopyrrolidin-1-yl)-1H-benzo[d]imidazol-1-yl)methyl)benzonitrile] | 560 nM
19 | C[C@H](c1ccc(C#N)cn1)n1c(N2CC[C@@H]3OCCN[C@H]3C2)nc2cc(F)cc(F)c21 [Example 272, 6-((1R)-1-(5,7-difluoro-2-((4aS,8aS)-hexahydro-2H-pyrido[4,3-b][1,4]oxazin-6(5H)-yl)-1H-benzimidazol-1-yl)ethyl)-3-pyridinecarbonitrile] | 2.81 nM
20 | CO[C@@H]1CCN(c2nc3ccc(F)cc3n2Cc2ncc(Cl)cn2)C[C@H]1N [Example 454, (3R,4R)-1-(1-((5-chloropyrimidin-2-yl)methyl)-6-fluoro-1H-benzo[d]imidazol-2-yl)-4-methoxypiperidin-3-amine] | 1.52 nM
21 | N[C@@H]1CN(c2nc3ccc(F)cc3n2CC(=O)N2CCOC[C@H]2CO)CC[C@H]1F [Example 686, 2-(2-((3R,4R)-3-amino-4-fluoropiperidin-1-yl)-6-fluoro-1H-benzo[d]imidazol-1-yl)-1-((R)-3-(hydroxymethyl)morpholino) ethan-1-one] | 1570 nM
22 | N#Cc1ccc(Cn2c(N3CC[C@@H](F)[C@H](N)C3)nc3cc(C#N)ccc32)cc1 [Example 159, 2-((3R,4R)-3-amino-4-fluoro-1-piperidinyl)-1-(4-cyanobenzyl)-1H-benzimidazole-5-carbonitrile] | 16.4 nM
23 | N#Cc1ccc(Cn2c(N3CC[C@@H](F)[C@H](N)C3)nc3cc(C(F)(F)F)ccc32)nc1 [Example 15, 6-((2-((3R,4R)-3-amino-4-fluoropiperidin-1-yl)-5-(trifluoromethyl)-1H-benzo[d]imidazol-1-yl)methyl)nicotinonitrile] | 4.39 nM
